Test results published in US20250205191A1, “R(-)-MDMA COMPOSITIONS AND METHODS OF TREATMENT” (EmpathBio, Inc., priority 2023, published 2025).

Tests used:
[1] = tested on: healthy volunteers; experiment: Phase 1 5-Dimensions-Altered States of Consciousness (5D-ASC); type: in vivo, human; settings: 75-225 mg oral
Source text: The 5D-ASC measures the acute drug effects using 5 primary dimensions and 11 lower-order scales to assess alterations in mood, perception and experience of self in relation to environment and thought disorder. The 5 dimensions include oceanic boundlessness, anxious ego dissolution, visionary restructuralization, auditory alterations, and reduction of vigilance.
A notable result illustrated by the ASC data was the reporting ratio of feelings of Oceanic Boundlessness (OB) relative to Dread of Ego Dissolution (DED). The ratio can be a useful metric as they are inversely correlated with psychedelic-mediated antidepressant efficacy (OB positively correlated, DED negatively correlated). […] The OB-DED ratio was consistent with the 11-Dimensional Altered States of Consciousness (11D-ASC).

[2] = tested on: healthy volunteers; experiment: Phase 1 Challenging Experiences Questionnaire (CEQ); type: in vivo, human; settings: 6.5 hours post dosing
Source text: Seven Challenging Experiences Questionnaire (CEQ) factors (grief, fear, death, insanity, isolation, physical distress, and paranoia) provide a phenomenological profile of challenging aspects of experiences with R(−)-MDMA.

[3] = tested on: healthy volunteers; experiment: Phase 1 exploratory Visual Analog Scale (VAS); type: in vivo, human; settings: vs placebo; dose-dependent pattern
Source text: VAS measure changes in subjective experience that are typical in healthy human volunteer studies. These include experiences such as Happy, Open, Loving, Close to Others, Sociable, and Lonely.

[4] = tested on: healthy volunteers; experiment: Phase 1 clinical study, safety and tolerability; type: in vivo, human
Source text: The primary endpoints assessed the safety, tolerability, pharmacokinetics (PK), and exploratory pharmacodynamic (PD) observations. Treatment-related adverse events (AEs) were in line with expectations (e.g., nausea at 29.2%, headache at 16.7%) and generally dose dependent.

[5] = tested on: male C57BL/6J mice; experiment: Mouse extinction of fear learning assay; type: in vivo; settings: vs vehicle
Experimental: Extinction of fear learning in rodents is a useful assay to understand if compounds have the potential to enhance learning processes that may be involved in recovery from SAD and other stress and anxiety related disorders, due to its resemblance to exposure-based therapy in humans. […] Freezing behavior, an indicator of the fear response, was measured in the presence of the CS during the extinction training session (Day 1) and the day after (Day 2, Extinction Testing, in the absence of test article). Locomotor activity was measured during the initial 2-minute habituation period, prior to the presentation of the CS, on Days 1 and 2.

[6] = tested on: healthy volunteers; experiment: Phase 1 Spoken Intensity Rating Scale (SIRS); type: in vivo, human
Experimental: Beyond 8 hours postdose, mean SIRS scores remained ≤0.5 in all cohorts.

[7] = tested on: oxytocin; experiment: Phase 1 hormone response, oxytocin; type: in vivo, human; settings: any cohort vs placebo group
[8] = target: T1, human 5-HT2C (edited) receptor (Homo sapiens, UniProt P28335); experiment: 5-HT2C (edited) agonism, inositol monophosphate accumulation (HTRF), CHO-K1 recombinant cells; type: cell-based
T1 sequence (P28335 33-458): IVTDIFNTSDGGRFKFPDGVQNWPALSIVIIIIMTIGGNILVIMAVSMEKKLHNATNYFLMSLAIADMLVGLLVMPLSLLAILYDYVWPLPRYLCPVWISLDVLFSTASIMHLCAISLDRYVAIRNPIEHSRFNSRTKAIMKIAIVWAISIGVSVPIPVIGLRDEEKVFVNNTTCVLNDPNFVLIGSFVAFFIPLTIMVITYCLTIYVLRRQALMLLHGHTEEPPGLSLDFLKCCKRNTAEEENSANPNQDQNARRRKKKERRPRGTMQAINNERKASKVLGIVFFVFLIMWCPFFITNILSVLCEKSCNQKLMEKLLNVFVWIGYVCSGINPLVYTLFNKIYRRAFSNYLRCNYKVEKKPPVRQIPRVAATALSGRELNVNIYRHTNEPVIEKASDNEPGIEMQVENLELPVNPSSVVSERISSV

[9] = tested on: rat embryonic cortical neurons; experiment: In vitro rat cortical neurite outgrowth; type: cell-based; settings: 3 days, vs vehicle control
Experimental: The experiment included a 0.1% sterile water vehicle negative control condition and a 250 nM donepezil positive control condition, and the number of neurites per neuron, total neurite length per neuron and branchpoints per neuron from n=12 wells per treatment were compared to the vehicle control condition.

[10] = target: T2, human 5-HT2B receptor (Homo sapiens, UniProt P41595); experiment: 5-HT2B agonism, inositol monophosphate accumulation (HTRF), CHO-K1 recombinant cells; type: cell-based
T2 construct: expressed in transfected cells; host or cells: CHO-K1
T2 sequence (P41595 whole entry): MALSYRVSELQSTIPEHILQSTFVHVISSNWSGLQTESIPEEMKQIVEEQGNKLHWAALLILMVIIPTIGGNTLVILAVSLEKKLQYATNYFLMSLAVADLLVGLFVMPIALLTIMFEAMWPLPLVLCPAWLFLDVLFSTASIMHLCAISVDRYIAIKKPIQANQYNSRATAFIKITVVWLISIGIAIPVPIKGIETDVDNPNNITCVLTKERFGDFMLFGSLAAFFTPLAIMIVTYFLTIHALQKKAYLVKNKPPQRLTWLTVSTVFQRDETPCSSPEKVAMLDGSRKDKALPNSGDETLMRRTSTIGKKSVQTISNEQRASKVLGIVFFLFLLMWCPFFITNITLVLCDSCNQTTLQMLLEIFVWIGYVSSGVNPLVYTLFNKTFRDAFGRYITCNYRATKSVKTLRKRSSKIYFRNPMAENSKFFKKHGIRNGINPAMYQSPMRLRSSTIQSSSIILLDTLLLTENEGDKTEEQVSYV

[11] = single oral 75-225 mg, healthy participants

## CN[C@H](C)Cc1ccc2c(c1)OCO2 [R(−)-MDMA, R(−)-3,4-methylenedioxymethamphetamine]
[1]
  5D-ASC sub-components and total score: dose-dependent increase in all measured sub-components and in the total score
[2]
  CEQ changes from baseline: clear dose-dependent response with statistical significance at higher doses
[3]
  VAS scores for positive affect (happy, loving, openness, less loneliness): increased VAS scores compared to placebo
[4]; highest dose (225 mg)
  bruxism: observed in a single subject
[4]; single oral 75-225 mg
  peak body temperatures: within the normal range
  serious or severe AEs: no serious or severe AEs were observed
  study discontinuations: no study discontinuations
[4]; [11]
  treatment-related adverse event: headache: 16.7%
  treatment-related adverse event: nausea: 29.2%
[4]; single oral 75-225 mg, limited dose dependency
  blood pressure and heart rate: Non-clinically significant increases
[5]; 10 mg/kg IP once
  freezing behavior: significantly reduced freezing behavior on Day 2 only
  locomotor activity: significantly increased activity on Day 1 only
[5]; 17 mg/kg IP once
  freezing behavior: significant reductions of freezing behavior on Days 1 and 2
  locomotor activity: significantly increased activity on Day 1 only
[5]; 30 mg/kg IP once
  freezing behavior: significant reductions of freezing behavior on Days 1 and 2
  locomotor activity (activity counts): significant increases in activity counts on Days 1 and 2
[6]; 75-225 mg oral
  SIRS dose response: strong dose response
[6]; all cohorts, beyond 8 hours postdose
  mean SIRS scores: ≤ 0.5
[6]; fasted state, each cohort, 1 to 2 hours postdose
  mean SIRS scores: small nominal increases from Baseline
[7]
  oxytocin production: did not appear to have an effect
[8]; 5-HT2C (edited) receptors
  agonism in words: high potency full agonism
[8]; 5-HT2C (edited), relative to α-Me-5-HT at its EC100
  Efficacy (% of a-Me-5-HT response): 96.6%
[9]; 0.0001 μM
  number of neurites per neuron: modest yet significant increases
[9]; 10 μM
  branchpoints per neuron: modest yet significant increases
  number of neurites per neuron: modest yet significant increases
  total neurite length per neuron: modest yet significant increases
[10]; 5-HT2B receptors
  agonism in words: high potency full agonism
[10]; 5-HT2B, CHO-K1, IP accumulation
  EC50: 53 nM
[10]; 5-HT2B, relative to α-Me-5-HT at its EC100
  Efficacy (% of a-Me-5-HT response): 91.8%
